According to patent publication US6833372B2, “Non-peptide GnRH agents, Pharmaceutical compositions, and methods for their use” (Pfizer, Inc., priority 2002, dated 2004):
Like-named read-outs stand apart in the source and are kept apart here.

Experiments:
[1] = Pharmacokinetics in rats (jugular vein cannula, plasma LC-MS); assay type: in vivo, Rat; settings: for Cmax / half-life / Tmax: rat, plasma
Description: Rats (male or female, 200-225 g) were prepared with indwelling jugular vein cannula as described by Harms et al., Applied Physiol. 36:391-398 (1974), and allowed to recover overnight with free access to the standard vivarium chow and water. […] […] The blood samples were withdrawn at specific times, plasma was immediately separated and compound extracted with ethyl acetate. The samples were analyzed by LC-MS using 30-90% gradient of ACN in 50 mM ammonium acetate.
The pharmacokinetic parameters were calculated using WinNonlin software (Scientific Consulting Inc.). The bioavailability was calculated as AUCp.o./AUCi.v., where AUCp.o. and AUC i.v. are areas under the plasma concentration-time curve after oral and i.v. administration, respectively.

[2] = In vitro metabolism: disappearance of parent compound in human liver microsomes; assay type: in vitro ADME; settings: 5 uM compound, 0.5 mg/ml protein, 2 mM NADPH, 30 minutes 37° C.
Description: (§1) Human, rat, dog, and monkey liver microsomes were isolated by differential centrifugation. Specimens of human liver were obtained from the International Institute for the Advancement of Medicine (Scranton, Pa.). The disappearance of the parent compound was studied in a mixture containing 5 uM compound, 0.5 mg/ml microsomal protein, and 2 mM NADPH in 50 mM K phosphate buffer, pH 7.4. Samples were incubated for 30 minutes at 37° C. The reaction was terminated by the addition of acetonitrile and compounds analyzed by LC-MS as described above.

Rat plasma % remain = assay type: in vitro ADME
rat GnRH receptor = biological target: T1, rat GnRH receptor (Rattus norvegicus, UniProt P30969); test: Radioligand binding: inhibition of 125I-GnRH-A binding to rat GnRH receptor (rat pituitary membranes); settings: read-out: Ki (nM), Inhibition Binding of 125I-GnRH-A to GnRH Receptors
T1 construct: or rat pituitaries (Pel Freez Biologicals, Rogers, Ark.) were homogenized; tissue Pel Freez Biologicals; host or cells: rat pituitaries (membrane preparation)
T1 sequence (P30969 1-327): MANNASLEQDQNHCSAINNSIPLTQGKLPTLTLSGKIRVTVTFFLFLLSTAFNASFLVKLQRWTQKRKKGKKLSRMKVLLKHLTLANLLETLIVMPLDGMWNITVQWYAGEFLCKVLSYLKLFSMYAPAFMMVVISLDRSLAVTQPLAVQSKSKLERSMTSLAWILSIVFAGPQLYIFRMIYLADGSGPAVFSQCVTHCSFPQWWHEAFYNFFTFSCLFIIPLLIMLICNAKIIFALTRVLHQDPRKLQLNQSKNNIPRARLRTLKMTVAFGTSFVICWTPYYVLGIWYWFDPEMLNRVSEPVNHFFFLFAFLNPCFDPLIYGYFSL
Procedure, shortened: (§2)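 Membranes from rat pituitaries, or HEK 293 cells stably expressing mouse or human receptor, incubated 1 hour at room temperature with ~0.04-0.06 nM radioligand (HEPES pH 7.4, EDTA, MgCl2, BSA) and competitor at 0.1-10,000 nM. Bound ligand collected by GF/C filtration and counted; Ki derived from IC50 by Cheng-Prusoff.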

[3] = In vitro metabolism: disappearance of parent compound in rat liver microsomes (male, female); assay type: in vitro ADME; settings: 5 uM compound, 30 minutes 37° C.; for Fem. Rat (FR) % rem. 30′: female rat liver microsomes; for Male Rat (MR) % rem. 30′: male rat liver microsomes
Description: as §1

[4] = In vitro metabolism: disappearance of parent compound in dog liver microsomes; assay type: in vitro ADME; settings: 5 uM compound, 30 minutes 37° C.
Description: as §1

human GnRH receptors = biological target: T2, human GnRH receptors (Homo sapiens, UniProt P30968); test: Radioligand binding: inhibition of 125I-GnRH-A binding to human GnRH receptor membranes; settings: HEK 293 cell membranes
T2 construct: expressed in transfected cells; host or cells: HEK 293 cells, stably transfected; membranes
T2 sequence (P30968 1-328): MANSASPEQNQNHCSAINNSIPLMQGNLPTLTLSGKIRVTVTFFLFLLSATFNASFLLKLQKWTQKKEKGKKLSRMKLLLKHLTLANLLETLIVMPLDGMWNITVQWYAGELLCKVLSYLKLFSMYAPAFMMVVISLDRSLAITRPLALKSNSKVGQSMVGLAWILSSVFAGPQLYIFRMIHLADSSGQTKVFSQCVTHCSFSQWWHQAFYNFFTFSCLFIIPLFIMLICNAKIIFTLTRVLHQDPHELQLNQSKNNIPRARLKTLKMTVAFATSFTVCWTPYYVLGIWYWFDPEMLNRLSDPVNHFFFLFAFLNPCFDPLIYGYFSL
Procedure, shortened: as §2

H S A = H S A (Homo sapiens, UniProt P02768); test: H S A column α; assay type: in vitro ADME
[5] = In vitro metabolism: disappearance of parent compound in monkey liver microsomes; assay type: in vitro ADME; settings: 5 uM compound, 30 minutes 37° C.
Description: as §1

[6] = Solubility at pH2 and pH6; assay type: physicochemical
[7] = female rat, 10 mg/kg as 5 mg/ml solution in 10% DMSO, 10% cremophor, 80% saline (footnote 5)
[8] = female, po, 10 mg/kg, female rat, 10 mg/kg as 5 mg/ml solution in 10% DMSO, 10% cremophor, 80% saline (footnote 5), read-out: FR Cmax
[9] = female, po, 10 mg/kg, female rat, 10 mg/kg as 5 mg/ml solution in 10% DMSO, 10% cremophor, 80% saline (footnote 5), read-out: FR T1/2 hr (converted)
[10] = female, po, 10 mg/kg, female rat, 10 mg/kg as 5 mg/ml solution in 10% DMSO, 10% cremophor, 80% saline (footnote 5), read-out: FR Tmax hr
[11] = pH 6, aqueous buffer, pH6, read-out: Solubility μg/ml pH6

H S A, sequence (P02768 25-609): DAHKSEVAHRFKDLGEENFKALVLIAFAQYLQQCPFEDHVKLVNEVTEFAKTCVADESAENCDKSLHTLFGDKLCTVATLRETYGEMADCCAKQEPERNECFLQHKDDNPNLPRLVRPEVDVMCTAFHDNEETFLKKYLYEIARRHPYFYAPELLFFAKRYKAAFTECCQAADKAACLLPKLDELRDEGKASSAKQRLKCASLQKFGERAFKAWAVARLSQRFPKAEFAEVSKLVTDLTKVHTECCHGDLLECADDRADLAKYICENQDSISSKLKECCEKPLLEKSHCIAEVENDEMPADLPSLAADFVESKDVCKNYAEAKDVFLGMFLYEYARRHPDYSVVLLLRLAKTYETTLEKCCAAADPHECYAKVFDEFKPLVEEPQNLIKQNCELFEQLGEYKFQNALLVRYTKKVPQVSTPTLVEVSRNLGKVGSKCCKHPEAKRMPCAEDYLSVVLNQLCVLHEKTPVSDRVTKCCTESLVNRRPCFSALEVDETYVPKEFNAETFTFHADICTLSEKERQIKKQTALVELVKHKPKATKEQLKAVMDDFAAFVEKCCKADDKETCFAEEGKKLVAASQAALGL

Compound | FR Fp.o. [1, 7] | Cmax [1, 8] | half-life [1, 9] | Tmax [1, 10] | Human % rem. 30′ [2] | Rat plasma % remain (Rat plasma % remain) | Ki (rat GnRH receptor) | Fem. Rat (FR) % rem. 30′ [3] | Male Rat (MR) % rem. 30′ [3] | Dog % rem. 30′ [4] | Ki (human GnRH receptors) | H S A column α (H S A) | Monkey % rem. [5] | MR Fp.o. ([1]; male rat, male rats dosed orally at 50 mg/kg) | Cmax ([1]; male, oral, 50 mg/kg, male rat, male rats dosed orally at 50 mg/kg, read-out: MR Cmax) | half-life ([1]; male, oral, 50 mg/kg, male rat, male rats dosed orally at 50 mg/kg, read-out: MR T1/2 hr (converted)) | Tmax ([1]; male, oral, 50 mg/kg, male rat, male rats dosed orally at 50 mg/kg, read-out: MR Tmax hr) | solubility ([6]; pH 2, simulated gastric fluid, pH2, read-out: Solubility μg/ml pH2) | solubility [6, 11]
CCN(CC)CCNc1nc(OC)c(NC(=O)c2ccc(Cc3cc4c(cc3C)C(C)(C)OC4(C)C)o2)c(OC)n1 [Example D7, N-(2-{[2-(Diethylamino)ethyl]amino}-4,6-dimethoxypyrimidin-5-yl)-5-[(1,1,3,3,6-pentamethyl-1,3-dihydro-2-benzofuran-5-yl)methyl]-2-furamide] | 30%^5 | 500 nM | 4.1 h | 2 h | 91% | 100% | 2.2 nM | 95% | 91% | 91% | 6 nM | 2 | 16% | – | – | – | – | – | –
COc1nc(Nc2ccccc2)nc(OC)c1NC(=O)c1ccc(Cc2cc3c(cc2C)C(C)(C)OC3(C)C)o1 [Example D1, 5-(1,1,3,3,6-Pentamethyl-1,3-dihydro-isobenzofuran-5-ylmethyl)-furan-2-carboxylic Acid (4,6-dimethoxy-2-phenylamino-pyrimidin-5-yl)-amide] | 2%^5 | 100 nM | 1.2 h | 1 h | 82% | 100% | 2.1 nM | 81% | 20% | 52% | 1.6 nM | 8 | 22% | – | – | – | – | – | > 15 µg/mL
COc1nc(N(C)C)nc(OC)c1NC(=O)c1ccc(Cc2cc3c(cc2C)C(C)(C)OC3(C)C)o1 [Example D8, N-[2-(Dimethylamino)-4,6-dimethoxypyrimidin-5-yl]-5-[(1,1,3,3,6-pentamethyl-1,3-dihydro-2-benzofuran-5-yl)methyl]-2-furamide] | – | – | – | – | 73% | 100% | 31 nM | 84% | 58% | 49% | 6 nM | 3 | 4% | – | – | – | – | – | –

These reach a lower Ki (rat GnRH receptor). Values come first.

FR Fp.o. [1, 7] | Cmax [1, 8] | half-life [1, 9] | Tmax [1, 10] | Human % rem. 30′ [2] | Rat plasma % remain (Rat plasma % remain) | Ki (rat GnRH receptor) | Fem. Rat (FR) % rem. 30′ [3] | Male Rat (MR) % rem. 30′ [3] | Dog % rem. 30′ [4] | Ki (human GnRH receptors) | H S A column α (H S A) | Monkey % rem. [5] | MR Fp.o. ([1]; male rat, male rats dosed orally at 50 mg/kg) | Cmax ([1]; male, oral, 50 mg/kg, male rat, male rats dosed orally at 50 mg/kg, read-out: MR Cmax) | half-life ([1]; male, oral, 50 mg/kg, male rat, male rats dosed orally at 50 mg/kg, read-out: MR T1/2 hr (converted)) | Tmax ([1]; male, oral, 50 mg/kg, male rat, male rats dosed orally at 50 mg/kg, read-out: MR Tmax hr) | solubility ([6]; pH 2, simulated gastric fluid, pH2, read-out: Solubility μg/ml pH2) | solubility [6, 11] | Compound
57%^5 | 800 nM | 4.3 h | 2 h | 89% | 100% | 0.54 nM | 100% | 80% | 100% | 3 nM | 2 | 44% | – | – | – | – | – | – | COc1nc(NCCCN(C)C)nc(OC)c1NC(=O)c1ccc(Cc2cc3c(cc2C)C(C)(C)OC3(C)C)o1 [Example D9, N-(2-{[3-(Dimethylamino)propyl]amino}-4,6-dimethoxypyrimidin-5-yl)-5-[(1,1,3,3,6-pentamethyl-1,3-dihydro-2-benzofuran-5-yl)methyl]-2-furamide]
– | – | – | – | 80% | – | 0.84 nM | 95% | 79% | 98% | 1.5 nM | 2 | 30% | 34% | 700 nM | 7 h | 4 h | > 30 µg/mL | > 30 µg/mL | COc1nc(NCCN2CCCC2)nc(OC)c1NC(=O)c1ccc(Cc2cc3c(cc2C)C(C)(C)OC3(C)C)o1 [Example D5]
– | – | – | – | 45% | – | 0.2 nM | 24% | 23% | 29% | 0.65 nM | 10 | 42% | – | – | – | – | – | – | COc1nc(NCCCNCCCN)nc(OC)c1NC(=O)c1ccc(Cc2cc3c(cc2C)C(C)(C)OC3(C)C)o1 [Example D17, N-[2-({3-[(3-Aminopropyl)amino]propyl}amino)-4,6-dimethoxypyrimidin-5-yl}-5-[(1,1,3,3,6-pentamethyl-1,3-dihydro-2-benzofuran-5-yl)methyl]-2-furamide]
10%^5 | 200 nM | 4.1 h | 2 h | 79% | 92% | 0.9 nM | 92% | 80% | 70% | 1.7 nM | >30 | 0% | – | – | – | – | – | – | COc1nc(NCCCN2CCOCC2)nc(OC)c1NC(=O)c1ccc(Cc2cc3c(cc2Cl)C(C)(C)CCC3(C)C)o1 [Example G1, 5-(3-Chloro-5,5,8,8-tetramethyl-5,6,7,8-tetrahydro-naphthalen-2-ylmethyl)-furan-2-carboxylic acid[4,6-dimethoxy-2-(3-morpholin-4-yl-propylamino)-pyrimidin-5-yl]-amide]
